Measured values as given in ChEMBL document CHEMBL1201862, “PubChem BioAssay data set” (2004).
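Exposure lasted 48 hours, with cells grown in 96-well plates and compounds tested at five concentrations. GI50: concentration for 50% inhibition of growth.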 Calls of active or inactive are those of the source. No stated cut-off is given here; in the data, active = GI50 up to about 1.1 µM and inactive = higher.

How the values were obtained:
Assay in all cases: NCI-60 cell line screen, 48 h
[1] = tested on: OVCAR-5
[2] = tested on: T47D
[3] = tested on: HCT-116
[4] = tested on: UACC-257
[5] = tested on: HOP-62
[6] = tested on: UACC-62
[7] = tested on: MCF7
[8] = tested on: SR
[9] = tested on: 786-0
[10] = tested on: NCI-H226
[11] = tested on: CCRF-CEM
[12] = tested on: HL-60
[13] = tested on: SF-295
[14] = tested on: DU-145
[15] = tested on: IGROV-1
[16] = tested on: SNB-19
[17] = tested on: EKVX
[18] = tested on: UO-31
[19] = tested on: MOLT-4
[20] = tested on: Hs-578T
[21] = tested on: A498
[22] = tested on: OVCAR-4
[23] = tested on: SN12C
[24] = tested on: NCI-H460
[25] = tested on: HOP-92
[26] = tested on: KM12
[27] = tested on: OVCAR-8
[28] = tested on: CAKI-1
[29] = tested on: SF-539
[30] = tested on: MDA-MB-435
[31] = tested on: OVCAR-3
[32] = tested on: NCI-H23
[33] = tested on: SK-MEL-28
[34] = tested on: SW-620
[35] = tested on: MDA-MB-231
[36] = tested on: COLO 205
[37] = tested on: LOX IMVI
[38] = tested on: HCT-15
[39] = tested on: SNB-75
[40] = tested on: TK-10
[41] = tested on: ACHN
[42] = tested on: PC-3
[43] = tested on: U-251
[44] = tested on: RXF 393
[45] = tested on: M14
[46] = tested on: NCI-H522
[47] = tested on: Malme-3M
[48] = tested on: HT-29
[49] = tested on: MDA-N
[50] = tested on: A549
[51] = tested on: HCC 2998
[52] = tested on: SF-268
[53] = tested on: NCI/ADR-RES
[54] = tested on: K562
[55] = tested on: SK-OV-3
[56] = tested on: SK-MEL-2
[57] = tested on: RPMI-8226

O=C(CCC(C(=O)OCc1ccccc1)C(=O)OCc1ccccc1)Nc1ccc(OCc2ccccc2)cc1 was tested, and the GI50 [1] was > 100 µM (inactive), the GI50 [2] was 91.6 µM (inactive) and the GI50 [3] was 14.3 µM (inactive). For the same compound, the GI50 [4] was > 100 µM (inactive), the GI50 [5] was > 100 µM (inactive) and the GI50 [6] was > 100 µM (inactive). The GI50 [7] was 13.2 µM (inactive), the GI50 [8] was 99.1 µM (inactive) and the GI50 [9] was 16.2 µM (inactive). For the same compound, the GI50 [10] was > 100 µM (inactive), the GI50 [11] was 47.5 µM (inactive) and the GI50 [12] was > 100 µM (inactive). The GI50 [13] was > 100 µM (inactive), the GI50 [14] was > 100 µM (inactive) and the GI50 [15] was > 100 µM (inactive). The GI50 [16] was 83.2 µM (inactive), the GI50 [17] was > 100 µM (inactive) and the GI50 [18] was > 100 µM (inactive). The GI50 [19] was 55.6 µM (inactive), the GI50 [20] was 52.7 µM (inactive) and the GI50 [21] was 21 µM (inactive). For the same compound, the GI50 [22] was 47.1 µM (inactive), the GI50 [23] was > 100 µM (inactive) and the GI50 [24] was 59.4 µM (inactive). The GI50 [25] was > 100 µM (inactive), the GI50 [26] was > 100 µM (inactive) and the GI50 [27] was 14.7 µM (inactive). The GI50 [28] was > 100 µM (inactive), the GI50 [29] was > 100 µM (inactive) and the GI50 [30] was 67.8 µM (inactive). The GI50 [31] was > 100 µM (inactive), the GI50 [32] was 40.3 µM (inactive) and the GI50 [33] was > 100 µM (inactive). The GI50 [34] was > 100 µM (inactive), the GI50 [35] was 22.6 µM (inactive) and the GI50 [36] was 41 µM (inactive). The GI50 [37] was > 100 µM (inactive), the GI50 [38] was 14 µM and the GI50 [39] was > 100 µM (inactive). The GI50 [40] was 63.4 µM (inactive), the GI50 [41] was > 100 µM (inactive) and the GI50 [42] was 17.6 µM (inactive). For the same compound, the GI50 [43] was 38.3 µM (inactive), the GI50 [44] was 49.8 µM (inactive) and the GI50 [45] was > 100 µM (inactive). For the same compound, the GI50 [46] was > 100 µM (inactive), the GI50 [47] was > 100 µM (inactive) and the GI50 [48] was > 100 µM (inactive). For the same compound, the GI50 [49] was 49.8 µM (inactive), the GI50 [50] was 35.9 µM (inactive) and the GI50 [51] was > 100 µM (inactive). The GI50 [52] was > 100 µM (inactive), the GI50 [53] was 60.4 µM (inactive) and the GI50 [54] was > 100 µM (inactive). The GI50 [55] was > 100 µM (inactive).

In the case of O=C1CC2C=CC(O)C(C1)C2 (stereo not drawn), the GI50 [1] is reported as > 100 µM (inactive), the GI50 [2] is reported as > 100 µM (inactive) and the GI50 [3] is reported as > 100 µM (inactive). The GI50 [4] was > 100 µM (inactive), the GI50 [5] was > 100 µM (inactive) and the GI50 [6] was > 100 µM (inactive). The GI50 [7] was > 100 µM (inactive), the GI50 [8] was < 0.01 µM (active) and the GI50 [9] was > 100 µM (inactive). The GI50 [10] was 37.4 µM (inactive), the GI50 [11] was > 100 µM (inactive) and the GI50 [12] was > 100 µM (inactive). The GI50 [13] was > 100 µM (inactive), the GI50 [14] was > 100 µM (inactive) and the GI50 [15] was > 100 µM (inactive). The GI50 [16] was > 100 µM (inactive), the GI50 [56] was > 100 µM (inactive) and the GI50 [18] was > 100 µM (inactive). For the same compound, the GI50 [19] was > 100 µM (inactive), the GI50 [20] was 21 µM (inactive) and the GI50 [21] was > 100 µM (inactive). For the same compound, the GI50 [57] was > 100 µM (inactive), the GI50 [22] was > 100 µM (inactive) and the GI50 [23] was > 100 µM (inactive). For the same compound, the GI50 [24] was > 100 µM (inactive), the GI50 [26] was > 100 µM (inactive) and the GI50 [27] was > 100 µM (inactive). For the same compound, the GI50 [29] was > 100 µM (inactive), the GI50 [30] was > 100 µM (inactive) and the GI50 [31] was > 100 µM (inactive). For the same compound, the GI50 [32] was > 100 µM (inactive), the GI50 [33] was > 100 µM (inactive) and the GI50 [34] was > 100 µM (inactive). The GI50 [35] was > 100 µM (inactive), the GI50 [36] was > 100 µM (inactive) and the GI50 [37] was > 100 µM (inactive). For the same compound, the GI50 [38] was over 100 µM, the GI50 [39] was 72.6 µM (inactive) and the GI50 [40] was > 100 µM (inactive). The GI50 [41] was > 100 µM (inactive), the GI50 [42] was > 100 µM (inactive) and the GI50 [43] was > 100 µM (inactive). The GI50 [44] was 3.49 µM (inactive), the GI50 [45] was > 100 µM (inactive) and the GI50 [46] was > 100 µM (inactive). The GI50 [47] was > 100 µM (inactive), the GI50 [48] was > 100 µM (inactive) and the GI50 [49] was > 100 µM (inactive). The GI50 [51] was > 100 µM (inactive), the GI50 [52] was > 100 µM (inactive) and the GI50 [53] was > 100 µM (inactive). The GI50 [54] was > 100 µM (inactive) and the GI50 [55] was > 100 µM (inactive).
